The nature of data set [1]: Urinary excretions of β-lactam antibiotics after rectal suppository (rabbit). Conditions: Compound (I) 5%, Witepsol H-15. The data set is classed as in vivo. The procedure: The absorption into the circulation through the rectum of the rectal suppositories thus prepared was determined by measuring urinary excretion of the pharmacologically-active substance.
Thus, Sarcina lutea and Bacillus subtilis were used as assay organisms for penicillins and cephalosporins, respectively, and the assays were performed by the paper disk method (cultivation at 37° C. for from 15 to 20 hours).

The nature of data set [2]: Urinary excretions of AB-PC after administration of AB-PC rectal suppository (human). It counts as in vivo. The note with it: AB-PC 125 mg (potency); for Urinary excretions of AB-PC (%) (0-6 hr.): added compound 10%, Witepsol H-15, % of dose. The procedure: The thus-obtained suppositories were administered to healthy adult male humans from the anus, and the urinary excretions of AB-PC were determined.

Where [3] appears, read: Compound (I) 10%, Witepsol H-15, Table 3.

Consider `CCCCCCCC(=O)Nc1ccc(C(=O)O)cc1` [Compound 17-Na, N--(n-Caprylyl)-4-aminobenzoic acid], for which, in data set [1] (Cefmetazole 125 mg (potency)), the “Urinary excretions (%) 0-2 hr.” value amounted to 45.0%, the “Urinary excretions (%) 2-4 hr.” value is 21.1%, the “Urinary excretions (%) 4-6 hr.” value amounted to 3.0% and the “Urinary excretions (%) Total (0-6 hr.)” value stood at 64.6%.
For the molecule `CCCCCCCCCC(=O)OCC` [Ethyl caprate, reference compound], the “Urinary excretions of AB-PC (%) (0-6 hr.)” value in data set [2] is 3.0%.
On to `CCCCCCCC(=O)OCC` [Ethyl caprylate, reference compound], for which the “Urinary excretions of AB-PC (%) (0-6 hr.)” value in data set [2] was determined as 2.9%.
As to `CCCCCCCCCCCC(=O)N[C@H](C(=O)O)C(C)C` [Compound 25-Na, N--Lauroyl-L-valine], in data set [1] (Cefmetazole 125 mg (potency)), the “Urinary excretions (%) 0-2 hr.” value was 45.0%, the “Urinary excretions (%) 2-4 hr.” value is on record as 10.0%, the “Urinary excretions (%) 4-6 hr.” value is reported as 2.0% and the “Urinary excretions (%) Total (0-6 hr.)” value came to 57.0%.
On to `CCCCCCCCCCNC(=O)CCC(=O)O` [Compound 12-Na, N--(n-Decyl)succinamic acid], for which, in data set [1] (FK-749 125 mg (potency)), the “Urinary excretions (%) 0-2 hr.” value is 40.1%, the “Urinary excretions (%) 2-4 hr.” value is listed as 18.0%, the “Urinary excretions (%) 4-6 hr.” value came out at 2.0% and the “Urinary excretions (%) Total (0-6 hr.)” value is 60.1%.
On to `CCCCCCCCNC(=O)c1ccccc1C(=O)O` [Compound 14-Na, 2-Carboxy-N--(n-octyl)benzamide], for which, in data set [1] (FK-749 125 mg (potency)), the “Urinary excretions (%) 0-2 hr.” value was determined as 41.2%, the “Urinary excretions (%) 2-4 hr.” value is 19.0%, the “Urinary excretions (%) 4-6 hr.” value worked out at 1.8% and the “Urinary excretions (%) Total (0-6 hr.)” value turned out to be 62.0%.
Regarding `CCCCCCOc1ccc(C(=O)O)cc1` [Compound 6-Na, p-Hexyloxybenzoic acid], in data set [1] (SCE-1365 125 mg (potency)), the “Urinary excretions (%) 0-2 hr.” value is listed as 45.0%, the “Urinary excretions (%) 2-4 hr.” value is reported as 18.2%, the “Urinary excretions (%) 4-6 hr.” value is given as 1.8% and the “Urinary excretions (%) Total (0-6 hr.)” value was found to be 65.0%. Besides, the “Urinary excretions of AB-PC (%) (0-6 hr.)” value in data set [2] is on record as 21.2%.
As for `CCCCCCCCCCCCCC(=O)N[C@H](C(=O)O)[C@@H](C)O` [Compound 26-Na, N--Myristoyl-L-threonine], in data set [1] (Cefsulodin 125 mg (potency)), the “Urinary excretions (%) 0-2 hr.” value turned out to be 41.1%, the “Urinary excretions (%) 2-4 hr.” value is 8.2%, the “Urinary excretions (%) 4-6 hr.” value is listed as 0.5% and the “Urinary excretions (%) Total (0-6 hr.)” value is 49.8%. Also, in data set [1] (Sulbenicillin 125 mg (potency)), the “Urinary excretions (%) 0-2 hr.” value was 40.0%, the “Urinary excretions (%) 2-4 hr.” value was 5.1%, the “Urinary excretions (%) 4-6 hr.” value amounted to 1.0% and the “Urinary excretions (%) Total (0-6 hr.)” value is 46.2%. In data set [2] (setting [3]), the “Urinary excretions (%) 0-2 (hr.)” value was determined as 26.1%, the “Urinary excretions (%) 2-4 (hr.)” value turned out to be 3.0%, the “Urinary excretions (%) 4-6 (hr.)” value is reported as 0.9% and the “Urinary excretions (%) Total (0-6 hr.)” value came out at 30.0%.
As to `CCCCCC(=O)N[C@@H](Cc1c[nH]c2ccccc12)C(=O)O` [Compound 22-Na, N--Caproyl-L-tryptophan], in data set [1] (Cefazolin 125 mg (potency)), the “Urinary excretions (%) 0-2 hr.” value turned out to be 40.5%, the “Urinary excretions (%) 2-4 hr.” value was 16.0%, the “Urinary excretions (%) 4-6 hr.” value came to 2.0% and the “Urinary excretions (%) Total (0-6 hr.)” value came out at 58.5%. In addition, in data set [1] (Cephalothin 125 mg (potency)), the “Urinary excretions (%) 0-2 hr.” value amounted to 19.5%, the “Urinary excretions (%) 2-4 hr.” value was found to be 2.5%, the “Urinary excretions (%) 4-6 hr.” value stood at 0.2% and the “Urinary excretions (%) Total (0-6 hr.)” value is on record as 22.2%.
Take `CCCCCCCCCCCC(=O)N(C)CC(=O)O` [Compound 10-Na, N--Lauroylsarcosine]: in data set [1] (Sulbenicillin 125 mg (potency)), the “Urinary excretions (%) 0-2 hr.” value is 33.5%, the “Urinary excretions (%) 2-4 hr.” value was 10.0%, the “Urinary excretions (%) 4-6 hr.” value is reported as 1.0% and the “Urinary excretions (%) Total (0-6 hr.)” value is 43.5%.
With `O=C(O)CCCCCCCCCCCCC(=O)O` [Compound 7-Na, 1,12-Dodecamethylene dicarboxylic acid], in data set [1] (6059-S 125 mg (potency)), the “Urinary excretions (%) 0-2 hr.” value stood at 42.2%, the “Urinary excretions (%) 2-4 hr.” value amounted to 8.8%, the “Urinary excretions (%) 4-6 hr.” value is on record as 1.0% and the “Urinary excretions (%) Total (0-6 hr.)” value was determined as 52.0%. The “Urinary excretions of AB-PC (%) (0-6 hr.)” value in data set [2] is 22.6%.
Turning to `O=C(O)CCCCCCCCCC(=O)O` [Compound 1-Na, 1,9-Nonamethylendicarboxylic acid], in data set [1] (Cephalothin 125 mg (potency)), the “Urinary excretions (%) 0-2 hr.” value worked out at 20.5%, the “Urinary excretions (%) 2-4 hr.” value is 3.0%, the “Urinary excretions (%) 4-6 hr.” value is recorded as 0.2% and the “Urinary excretions (%) Total (0-6 hr.)” value is given as 23.7%. For the same molecule, the “Urinary excretions of AB-PC (%) (0-6 hr.)” value in data set [2] amounted to 15.2%.
In the case of `CCCCOc1ccc(C(=O)N[C@@H](Cc2ccccc2)C(=O)O)cc1` [Compound 20-Na, N--(4-Butoxybenzoyl)phenylalanine], in data set [1] (6059-S 125 mg (potency)), the “Urinary excretions (%) 0-2 hr.” value worked out at 46.0%, the “Urinary excretions (%) 2-4 hr.” value was found to be 15.2%, the “Urinary excretions (%) 4-6 hr.” value is 4.1% and the “Urinary excretions (%) Total (0-6 hr.)” value was 65.3%.
`c1ccc2occc2c1` [Benzofurane, reference compound]: the “Urinary excretions of AB-PC (%) (0-6 hr.)” value in data set [2] was determined as 1.9%.
On the same count and under the same terms, the result for `O=C(O)COc1cccc2ccccc12` [Compound 8-Na, α-Napthoxacetic acid] reads 15.1%.
`O=C(N[C@@H](Cc1ccccc1)C(=O)O)c1ccccc1O` [Compound 19-Na, N--(2-Hydroxybenzoyl)phenylalanine]: in data set [1] (6059-S 125 mg (potency)), the “Urinary excretions (%) 0-2 hr.” value was 38.0%, the “Urinary excretions (%) 2-4 hr.” value stood at 20.0%, the “Urinary excretions (%) 4-6 hr.” value was found to be 3.1% and the “Urinary excretions (%) Total (0-6 hr.)” value was 61.1%.

(Values after patent US4442090A, “Absorption-promoting compounds, compositions thereof with pharmaceuticals and/or bases for rectal administration and method of use” (Kyoto Yakuhin Kogyo Kabushiki Kaisha, priority 1980, dated 1984).)
